Experimental data published in ChEMBL document CHEMBL6109154, “Development of Novel PRMT7 Inhibitors for the Treatment of Prostate Cancer” (J Med Chem, 2025).

Experiments:
[1] = molecular target: T1, Protein arginine N-methyltransferase 7 (Homo sapiens, UniProt Q9NVM4); experiment: Inhibition of N-terminal FLAG-tagged recombinant human PRMT7 extracted from baculovirus infected Sf9 cells using Histone H4 (1 to 21) peptide as substrate preincubated for 15 mins followed by [3H]-SAM and substrate addition and measured after 180 mins by microplate counter analysis
T1 sequence (Q9NVM4 whole entry): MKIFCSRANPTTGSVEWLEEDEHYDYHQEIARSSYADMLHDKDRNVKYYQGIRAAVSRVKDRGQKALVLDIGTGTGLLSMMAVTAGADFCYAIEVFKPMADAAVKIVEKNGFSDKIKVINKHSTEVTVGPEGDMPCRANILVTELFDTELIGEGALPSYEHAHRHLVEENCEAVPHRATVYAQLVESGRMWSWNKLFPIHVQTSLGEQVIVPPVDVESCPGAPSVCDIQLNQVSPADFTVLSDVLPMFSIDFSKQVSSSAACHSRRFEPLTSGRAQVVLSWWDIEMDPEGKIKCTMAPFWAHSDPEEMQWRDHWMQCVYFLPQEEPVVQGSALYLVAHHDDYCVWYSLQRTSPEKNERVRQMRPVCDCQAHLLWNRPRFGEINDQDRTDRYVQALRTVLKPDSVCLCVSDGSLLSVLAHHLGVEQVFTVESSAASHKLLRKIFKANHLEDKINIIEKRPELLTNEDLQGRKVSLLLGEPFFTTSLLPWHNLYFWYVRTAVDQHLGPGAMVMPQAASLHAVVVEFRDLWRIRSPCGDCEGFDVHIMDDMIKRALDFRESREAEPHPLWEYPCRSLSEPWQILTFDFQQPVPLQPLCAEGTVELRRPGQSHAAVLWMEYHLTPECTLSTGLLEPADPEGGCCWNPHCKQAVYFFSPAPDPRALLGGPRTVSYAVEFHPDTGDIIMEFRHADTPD

DU-145 [2] = experiment: Antiproliferative activity against human DU-145 cells assessed as reduction in cell viability incubated for 48 hrs by CCK8 assay; type: functional, cell-based; settings: DU-145, 48 h
[3] = molecular target: T1, Protein arginine N-methyltransferase 7; experiment: Binding affinity to N-terminal GST-tagged recombinant full length human PRMT7 extracted from baculovirus infected Sf9 cells assessed as dissociation constant by SPR analysis
CWR22R = experiment: Antiproliferative activity against human 22Rv1 cells assessed as reduction in cell viability incubated for 48 hrs by CCK8 assay; type: functional, cell-based; settings: 22Rv1, 48 h
PC-3 = experiment: Antiproliferative activity against human PC-3 cells assessed as reduction in cell viability incubated for 48 hrs by CCK8 assay; type: functional, cell-based; settings: PC-3, 48 h
VCaP = experiment: Antiproliferative activity against human VCaP cells assessed as reduction in cell viability incubated for 48 hrs by CCK8 assay; type: functional, cell-based
DU-145 [4] = experiment: Antitumor activity against human DU-145 cells xenografted in male BALB/c nude mouse assessed as tumor growth inhibition at 20 mg/kg, ip relative to control; settings: DU-145, read-out: TGI
[5] = molecular target: Protein arginine N-methyltransferase 1 (Homo sapiens, UniProt Q99873); experiment: Inhibition of N-terminal FLAG-tagged recombinant full length human PRMT1 extracted from baculovirus expression system preincubated for 10 mins followed by substrate addition and measured after 3 hrs by MTase-Glo detection reagent based luminescence analysis
[6] = molecular target: Protein arginine N-methyltransferase 3 (Homo sapiens, UniProt O60678); experiment: Inhibition of N-terminal His-tagged recombinant human PRMT3 (2 to 531 residues) extracted from Escherichia coli preincubated for 10 mins followed by substrate addition and measured after 3 hrs by MTase-Glo detection reagent based luminescence analysis
[7] = molecular target: T2, Histone-arginine methyltransferase CARM1 (Homo sapiens, UniProt Q86X55); experiment: Inhibition of N-terminal FLAG-tagged recombinant full length human PRMT4 extracted from baculovirus expression system preincubated for 10 mins followed by substrate addition and measured after 3 hrs by MTase-Glo detection reagent based luminescence analysis
T2 sequence (Q86X55 whole entry): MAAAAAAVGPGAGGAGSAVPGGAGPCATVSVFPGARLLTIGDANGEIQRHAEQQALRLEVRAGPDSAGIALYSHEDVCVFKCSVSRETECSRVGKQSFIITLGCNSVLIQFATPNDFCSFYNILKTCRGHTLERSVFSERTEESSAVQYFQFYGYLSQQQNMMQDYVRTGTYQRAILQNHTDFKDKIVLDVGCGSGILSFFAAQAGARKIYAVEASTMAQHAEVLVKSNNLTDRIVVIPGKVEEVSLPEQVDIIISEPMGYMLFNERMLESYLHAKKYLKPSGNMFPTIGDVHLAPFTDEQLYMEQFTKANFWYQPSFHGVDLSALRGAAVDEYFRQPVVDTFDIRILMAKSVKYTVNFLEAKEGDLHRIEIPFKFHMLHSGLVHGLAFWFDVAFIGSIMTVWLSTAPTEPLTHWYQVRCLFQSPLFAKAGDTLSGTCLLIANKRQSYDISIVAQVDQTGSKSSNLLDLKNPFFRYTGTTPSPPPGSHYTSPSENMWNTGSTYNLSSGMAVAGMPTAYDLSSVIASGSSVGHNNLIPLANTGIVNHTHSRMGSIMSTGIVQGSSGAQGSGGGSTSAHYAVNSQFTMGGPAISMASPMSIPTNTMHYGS

[8] = molecular target: Protein arginine N-methyltransferase 6 (Homo sapiens, UniProt Q96LA8); experiment: Inhibition of PRMT6 (unknown origin) preincubated for 10 mins followed by substrate addition and measured after 3 hrs by MTase-Glo detection reagent based luminescence analysis
[9] = molecular target: Protein arginine N-methyltransferase 8 (Homo sapiens, UniProt Q9NR22); experiment: Inhibition of N-terminal His-tagged human PRMT8 (61 to 394 residues) extracted from Escherichia coli preincubated for 10 mins followed by substrate addition and measured after 3 hrs by MTase-Glo detection reagent based luminescence analysis
[10] = molecular target: T3, Protein arginine N-methyltransferase 9 (Homo sapiens, UniProt Q6P2P2); experiment: Inhibition of PRMT9 (unknown origin) incubated overnight by Alphascreen microplate reader
T3 sequence (Q6P2P2 whole entry): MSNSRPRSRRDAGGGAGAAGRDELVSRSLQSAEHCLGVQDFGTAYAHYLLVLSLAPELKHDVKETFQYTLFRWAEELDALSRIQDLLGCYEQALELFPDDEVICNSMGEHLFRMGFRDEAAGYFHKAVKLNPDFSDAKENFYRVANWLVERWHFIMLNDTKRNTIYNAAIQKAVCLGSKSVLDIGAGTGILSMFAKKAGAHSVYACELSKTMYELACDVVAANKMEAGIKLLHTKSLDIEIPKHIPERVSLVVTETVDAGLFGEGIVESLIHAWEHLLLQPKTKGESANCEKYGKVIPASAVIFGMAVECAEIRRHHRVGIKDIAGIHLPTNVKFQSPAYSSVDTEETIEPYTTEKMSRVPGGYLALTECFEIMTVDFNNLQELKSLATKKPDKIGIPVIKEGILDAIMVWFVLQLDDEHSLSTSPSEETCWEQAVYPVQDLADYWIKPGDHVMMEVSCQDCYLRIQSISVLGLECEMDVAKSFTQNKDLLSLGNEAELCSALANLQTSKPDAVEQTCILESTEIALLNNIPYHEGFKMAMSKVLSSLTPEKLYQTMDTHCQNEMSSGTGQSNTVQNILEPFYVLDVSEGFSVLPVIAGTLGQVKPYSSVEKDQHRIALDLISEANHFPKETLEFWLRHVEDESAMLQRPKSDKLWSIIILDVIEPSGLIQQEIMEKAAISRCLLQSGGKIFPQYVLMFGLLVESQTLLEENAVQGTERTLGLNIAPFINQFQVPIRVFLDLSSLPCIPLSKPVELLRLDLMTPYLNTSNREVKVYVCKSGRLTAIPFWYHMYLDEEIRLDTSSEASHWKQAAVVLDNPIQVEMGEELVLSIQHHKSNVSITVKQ

Chain of Protein arginine N-methyltransferase 6 (Q96LA8 whole entry, the tested form may be a part): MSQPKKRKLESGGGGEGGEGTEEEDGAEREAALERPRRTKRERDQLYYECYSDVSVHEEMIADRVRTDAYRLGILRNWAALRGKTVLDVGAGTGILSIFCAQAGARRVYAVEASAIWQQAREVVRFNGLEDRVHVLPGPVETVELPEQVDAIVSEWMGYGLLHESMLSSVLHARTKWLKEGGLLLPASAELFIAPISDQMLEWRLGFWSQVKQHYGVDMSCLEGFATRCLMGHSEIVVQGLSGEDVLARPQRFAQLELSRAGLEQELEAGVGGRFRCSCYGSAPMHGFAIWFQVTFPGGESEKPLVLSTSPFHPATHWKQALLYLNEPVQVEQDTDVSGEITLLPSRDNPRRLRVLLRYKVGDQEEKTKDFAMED
Chain of Protein arginine N-methyltransferase 1 (Q99873 whole entry, the tested form may be a part): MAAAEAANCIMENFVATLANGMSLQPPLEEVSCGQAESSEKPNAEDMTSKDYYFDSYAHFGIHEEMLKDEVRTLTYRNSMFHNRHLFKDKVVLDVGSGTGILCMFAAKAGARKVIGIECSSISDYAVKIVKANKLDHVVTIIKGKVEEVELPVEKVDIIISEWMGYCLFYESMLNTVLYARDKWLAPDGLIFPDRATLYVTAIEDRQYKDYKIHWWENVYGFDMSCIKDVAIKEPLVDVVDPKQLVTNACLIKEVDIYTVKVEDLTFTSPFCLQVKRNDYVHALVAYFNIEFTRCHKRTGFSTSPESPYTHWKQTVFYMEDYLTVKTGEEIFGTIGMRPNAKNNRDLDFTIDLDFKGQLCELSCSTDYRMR
Chain of Protein arginine N-methyltransferase 8 (Q9NR22 whole entry, the tested form may be a part): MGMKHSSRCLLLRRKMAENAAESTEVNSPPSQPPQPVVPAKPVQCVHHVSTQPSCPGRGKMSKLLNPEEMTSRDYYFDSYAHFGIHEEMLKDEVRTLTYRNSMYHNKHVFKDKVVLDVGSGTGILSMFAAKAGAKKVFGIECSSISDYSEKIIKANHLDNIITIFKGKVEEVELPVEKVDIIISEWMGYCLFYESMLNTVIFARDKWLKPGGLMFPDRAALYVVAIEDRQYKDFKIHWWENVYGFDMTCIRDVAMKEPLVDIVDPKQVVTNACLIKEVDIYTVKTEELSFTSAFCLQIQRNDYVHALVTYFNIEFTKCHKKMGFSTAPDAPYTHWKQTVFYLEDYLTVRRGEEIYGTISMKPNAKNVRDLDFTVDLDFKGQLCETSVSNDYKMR
Chain of Protein arginine N-methyltransferase 3 (O60678 whole entry, the tested form may be a part): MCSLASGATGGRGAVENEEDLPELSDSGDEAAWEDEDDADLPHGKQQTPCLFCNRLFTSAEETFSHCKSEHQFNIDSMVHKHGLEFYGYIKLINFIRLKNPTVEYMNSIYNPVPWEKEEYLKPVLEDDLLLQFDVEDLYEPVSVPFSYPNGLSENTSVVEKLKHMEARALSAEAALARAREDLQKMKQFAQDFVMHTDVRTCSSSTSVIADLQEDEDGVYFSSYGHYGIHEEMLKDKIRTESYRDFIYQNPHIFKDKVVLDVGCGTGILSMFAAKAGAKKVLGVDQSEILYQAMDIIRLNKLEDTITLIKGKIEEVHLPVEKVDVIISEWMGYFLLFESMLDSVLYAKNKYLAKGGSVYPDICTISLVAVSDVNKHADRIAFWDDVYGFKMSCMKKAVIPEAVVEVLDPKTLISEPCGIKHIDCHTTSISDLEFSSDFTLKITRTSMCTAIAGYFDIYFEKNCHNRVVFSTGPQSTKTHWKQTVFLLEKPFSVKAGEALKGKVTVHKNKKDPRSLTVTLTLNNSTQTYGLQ

SMILES	IC50 [1] [µM]	IC50 (DU-145 [2]) [nM]	Kd [3] [µM]	IC50 (CWR22R) [nM]	IC50 (PC-3) [nM]	IC50 (VCaP) [nM]	inhibition in vivo at 20 mg/kg (DU-145 [4]) [%]	IC50 [5] [µM]	IC50 [6] [µM]	IC50 [7] [µM]	IC50 [8] [µM]	IC50 [9] [µM]	IC50 [10] [µM]
COc1cc(-c2ncc(F)c(Nc3ccc4nc(C)cc(N)c4c3)n2)cc(OC)c1OC	9.91	1470	7.12	1320	1130	1660	40.3	–	–	–	–	–	–
COc1cc(-c2ccc3ncc(Nc4ccc(N(C)C)cc4)nc3c2)cc(OC)c1OC	26	–	–	–	–	–	–	–	–	–	–	–	–
COc1cc(-c2nc(Nc3ccc4nc(C)cc(N)c4c3)c3sccc3n2)cc(OC)c1OC	–	–	–	–	–	–	–	> 100	> 100	> 100	> 100	> 100	> 100
